Test results from patent publication US20240262826A1, “WILD TYPE KIT INHIBITORS” (Blueprint Medicines Corporation, priority 2022, published 2024).

The compounds below were run against wild type c-kit (Homo sapiens (Human), UniProt P10721) (assay: PathScan phospho c-kit (Tyr719) sandwich ELISA in SCF-stimulated M-07e cells (pKIT assay)). Details: ELISA assay (values not marked *).
Type: cell-based
Source text: The ability of compounds of the disclosure (described herein as test compounds) to inhibit autophosphorylation of wild type c-kit was measures using either a PathScan phospho c-kit (Tyr719) sandwich ELISA (CST #7298) or a Phospho c-Kit (Tyr721) Assay Whole Cell Lysate Kit (MSD: 515DPD/catalog number K15119D-2).
For the PathScan phospho c-kit (Tyr719) sandwich ELISA: M-07e cells were resuspended at 2×10^6 cells/mL in phenol red free, serum-free, GM-CSF-free Iscove's Modified Dulbecco's Medium (IMDM) media with 1% Penicillin-Streptomycin. The cells were then dispensed into the wells of a U-bottom, 96-well plate at 50 uL per well using a multichannel pipet. The plate was allowed to incubate at 37° C. in a humidified tissue culture incubator for 4 hours.
After 4 hours of incubation, each well was dosed with 6.25 uL of test compound at a final DMSO concentration of 0.25% for 60 min at 37° C. to generate an 8-point dose concentration series of test compounds in duplicate. Cells were then incubated for 1 hour at 37° C. in a humidified tissue culture incubator. Next, human SCF at 500 ng/mL was added to the appropriate wells at 6.25 uL/well and the plate was shaken at 450 rpm at room temperature for 10 minutes. AlphaLISA 5× Lysis Buffer supplemented with 1× protease and phosphatase inhibitor was then added at 16 uL/well. The plate was sealed with an adherent cover and shaken at 4° C. at 600 rpm for 30 minutes. After this period of lysis, the plate was stored at −80° C.
When the 96-well plate containing M07e lysates was ready to be processed, the plate was brought to room temperature and 40 μl from each well was transferred to the wells of a PathScan Phospho-c-Kit (Tyr719) Sandwich ELISA plate (CST, Catalog #7298). The ELISA plate was sealed with an adherent cover and incubated for 2 hours at 37° C. Next, the wells were washed 4 times with the provided 1× Wash Buffer, and 100 uL/well of reconstituted Detection Antibody was added to each well, the plate sealed with an adherent cover, and incubated at 37° C. for 1 hour. The wash procedure was repeated and 100 uL/well of reconstituted HRP-Linked secondary antibody was added. The plate was sealed with an adherent cover and incubated at 37° C. for 1 hour. The wash procedure was repeated and 100 uL/well of TMB Substrate was added. The plate was incubated for 10 minutes at room temperature or until the positive reaction elicited a blue color in the appropriate wells. 100 uL/well of STOP solution was added and shaken gently for a few seconds a microplate reader or conventional spectrophotometer e.g., a Perkin Elmer Envision multimode plate reader, part #2105-0010.
An IC50 was calculated using a 4-parameter logistic nonlinear regression.

wild type c-kit, sequence (P10721 26-976): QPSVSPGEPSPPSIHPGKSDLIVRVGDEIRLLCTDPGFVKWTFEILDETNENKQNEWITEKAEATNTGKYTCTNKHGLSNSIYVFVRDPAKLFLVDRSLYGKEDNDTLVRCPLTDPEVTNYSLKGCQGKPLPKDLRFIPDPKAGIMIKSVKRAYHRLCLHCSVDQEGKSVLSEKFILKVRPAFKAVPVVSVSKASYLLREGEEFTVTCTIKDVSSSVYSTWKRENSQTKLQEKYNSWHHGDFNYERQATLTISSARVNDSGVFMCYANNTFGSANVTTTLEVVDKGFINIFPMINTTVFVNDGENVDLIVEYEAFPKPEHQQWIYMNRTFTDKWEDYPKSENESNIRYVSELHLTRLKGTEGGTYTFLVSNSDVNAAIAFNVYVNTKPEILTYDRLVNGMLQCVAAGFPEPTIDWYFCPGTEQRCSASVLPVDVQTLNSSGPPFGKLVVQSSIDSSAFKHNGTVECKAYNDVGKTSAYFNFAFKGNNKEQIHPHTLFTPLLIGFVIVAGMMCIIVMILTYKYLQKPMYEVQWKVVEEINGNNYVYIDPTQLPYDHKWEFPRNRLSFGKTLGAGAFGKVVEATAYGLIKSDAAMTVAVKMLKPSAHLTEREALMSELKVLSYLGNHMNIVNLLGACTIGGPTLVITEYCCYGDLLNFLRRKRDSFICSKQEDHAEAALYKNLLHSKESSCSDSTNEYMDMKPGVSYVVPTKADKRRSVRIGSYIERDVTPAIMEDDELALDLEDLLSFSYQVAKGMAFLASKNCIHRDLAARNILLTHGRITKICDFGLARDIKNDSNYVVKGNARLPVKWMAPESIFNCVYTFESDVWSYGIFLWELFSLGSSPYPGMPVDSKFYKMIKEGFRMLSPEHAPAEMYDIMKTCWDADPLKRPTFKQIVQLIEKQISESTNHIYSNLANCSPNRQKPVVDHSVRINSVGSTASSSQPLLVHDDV

| SMILES | IC50 |
| --- | --- |
| Cc1ccc(-c2nnn(CCOC3CCC3)n2)cc1NC(=O)c1cnn2ccccc12 [Example 12, N-(5-(2-(2-cyclobutoxyethyl)-2H-tetrazol-5-yl)-2-methylphenyl)pyrazolo[1,5-a]pyridine-3-carboxamide] | 2.4 nM |
| Cc1ccc(-c2nnn(C3CN(S(=O)(=O)C4COC4)C3)n2)cc1NC(=O)c1cnn2ccccc12 [Example 183, N-(2-methyl-5-(2-(1-(oxetan-3-ylsulfonyl)azetidin-3-yl)-2H-tetrazol-5-yl)phenyl)pyrazolo[1,5-a]pyridine-3-carboxamide] | 45.4 nM |
| CCOC(=O)N1CC(n2nnc(-c3ccc(C)c(NC(=O)c4cnn5ccc(N6CCN(C)CC6)cc45)c3)n2)C1 [Example 76, ethyl 3-(5-(4-methyl-3-(5-(4-methylpiperazin-1-yl)pyrazolo[1,5-a]pyridine-3-carboxamido)phenyl)-2H-tetrazol-2-yl)azetidine-1-carboxylate] | 55.6 nM |
| Cc1nn(C[C@@H](C)O)cc1-c1ccn2ncc(C(=O)Nc3cc(-c4nnn(C5CC5)n4)c(F)cc3Cl)c2c1 [Example 281, (R)—N-(2-chloro-5-(2-cyclopropyl-2H-tetrazol-5-yl)-4-fluorophenyl)-5-(1-(2-hydroxypropyl)-3-methyl-1H-pyrazol-4-yl)pyrazolo[1,5-a]pyridine-3-carboxamide] | 0.4 nM |
| Cc1cc(F)c(-c2nnn(C3CC3)n2)cc1NC(=O)c1cnn2ccc(-c3cn(C[C@@H](O)C(C)(C)O)nc3C3CC3)cc12 [Example 259, (R)-5-(3-cyclopropyl-1-(2,3-dihydroxy-3-methylbutyl)-1H-pyrazol-4-yl)-N-(5-(2-cyclopropyl-2H-tetrazol-5-yl)-4-fluoro-2-methylphenyl)pyrazolo[1,5-a]pyridine-3-carboxamide] | 0.4 nM |
| O=C(Nc1cc(-c2nnn(C3CC(F)(F)C3)n2)ccc1Cl)c1cnn2ccccc12 [Example 17, N-(2-chloro-5-(2-(3,3-difluorocyclobutyl)-2H-tetrazol-5-yl)phenyl)pyrazolo[1,5-a]pyridine-3-carboxamide] | 6.5 nM |
| COC(=O)N1CC(n2nnc(-c3ccc(C)c(NC(=O)c4cnn5ccc(N6CCC(F)(F)C6)cc45)c3)n2)C1 [Example 67, methyl 3-(5-(3-(5-(3,3-difluoropyrrolidin-1-yl)pyrazolo[1,5-a]pyridine-3-carboxamido)-4-methylphenyl)-2H-tetrazol-2-yl)azetidine-1-carboxylate] | 22.7 nM |
| COCCOC[C@@H](O)Cn1cc(-c2ccn3ncc(C(=O)Nc4cc(-c5nnn(C6CC6)n5)c(F)cc4Cl)c3c2)c(C)n1 [Example 285, (S)—N-(2-chloro-5-(2-cyclopropyl-2H-tetrazol-5-yl)-4-fluorophenyl)-5-(1-(2-hydroxy-3-(2-methoxyethoxy)propyl)-3-methyl-1H-pyrazol-4-yl)pyrazolo[1,5-a]pyridine-3-carboxamide] | 1 nM |
| Cc1ccc(-c2nnn(C3CC3)n2)cc1NC(=O)c1cnn2ccc(-c3cnn(CCN4CCN(C)CC4)c3)cc12 [Example 219, N-(5-(2-cyclopropyl-2H-tetrazol-5-yl)-2-methylphenyl)-5-(1-(2-(4-methylpiperazin-1-yl)ethyl)-1H-pyrazol-4-yl)pyrazolo[1,5-a]pyridine-3-carboxamide] | 1.1 nM |
| Cc1ccc(-c2nnn(C3CN(S(=O)(=O)CCOCC(F)F)C3)n2)cc1NC(=O)c1cnn2ccccc12 [Example 176, N-(5-(2-(1-((2-(2,2-difluoroethoxy)ethyl)sulfonyl)azetidin-3-yl)-2H-tetrazol-5-yl)-2-methylphenyl)pyrazolo[1,5-a]pyridine-3-carboxamide] | 47.9 nM |
| COCC(C)Nc1ccn2ncc(C(=O)Nc3cc(-c4nnn(C5CN(C(=O)OC)C5)n4)ccc3C)c2c1 (stereo in doubt) [Example 128, methyl (S)-3-(5-(3-(5-((1-methoxypropan-2-yl)amino)pyrazolo[1,5-a]pyridine-3-carboxamido)-4-methylphenyl)-2H-tetrazol-2-yl)azetidine-1-carboxylate] | 47.4 nM |
| Cc1cc(C)c(-c2nnn(C3CC(F)(F)C3)n2)cc1NC(=O)c1cnn2ccc(N3CCOCC3)cc12 [Example 156, N-(5-(2-(3,3-difluorocyclobutyl)-2H-tetrazol-5-yl)-2,4-dimethylphenyl)-5-morpholinopyrazolo[1,5-a]pyridine-3-carboxamide] | 22.1 nM |
| Cc1ccc(-c2cnn(C3CC3)n2)cc1NC(=O)c1cnn2ccccc12 [Example 29, N-(5-(2-cyclopropyl-2H-1,2,3-triazol-4-yl)-2-methylphenyl)pyrazolo[1,5-a]pyridine-3-carboxamide] | 11.1 nM |
| Cc1cc(C)c(-c2nnn(CC3CC3(F)F)n2)cc1NC(=O)c1cnn2ccccc12 (centres unmarked) [Example 21, N-(5-(2-((2,2-difluorocyclopropyl)methyl)-2H-tetrazol-5-yl)-2,4-dimethylphenyl)pyrazolo[1,5-a]pyridine-3-carboxamide] | 6.4 nM |

More lines, in order of falling IC50, values ahead:

| IC50 | SMILES |
| --- | --- |
| 52.7 nM | O=C(Nc1cc(-c2nnn(C3CC(F)(F)C3)n2)c(C2CC2)cc1Cl)c1cnn2ccc(N3CCOCC3)cc12 [Example 117, N-(2-chloro-4-cyclopropyl-5-(2-(3,3-difluorocyclobutyl)-2H-tetrazol-5-yl)phenyl)-5-morpholinopyrazolo[1,5-a]pyridine-3-carboxamide] |
| 34.7 nM | CCNc1ccn2ncc(C(=O)Nc3cc(-c4nnn(C5CN(C(=O)OCC)C5)n4)ccc3C)c2c1 [Example 130, ethyl 3-(5-(3-(5-(ethylamino)pyrazolo[1,5-a]pyridine-3-carboxamido)-4-methylphenyl)-2H-tetrazol-2-yl)azetidine-1-carboxylate] |
| 32.4 nM | COC(=O)N1CC(n2nnc(-c3ccc(C)c(NC(=O)c4cnn5ccc(NC[C@H](C)OC)cc45)c3)n2)C1 [Example 134, methyl (S)-3-(5-(3-(5-((2-methoxypropyl)amino)pyrazolo[1,5-a]pyridine-3-carboxamido)-4-methylphenyl)-2H-tetrazol-2-yl)azetidine-1-carboxylate] |
| 29.6 nM | O=C(Nc1cc(-c2nnn(CC34COC(C3)C4)n2)ccc1Cl)c1cnn2ccccc12 [Example 18, N-(5-(2-((2-oxabicyclo[2.1.1]hexan-4-yl)methyl)-2H-tetrazol-5-yl)-2-chlorophenyl)pyrazolo[1,5-a]pyridine-3-carboxamide] |
| 11.8 nM | COCCNc1ccn2ncc(C(=O)Nc3cc(-n4ncc(C5CN(C(=O)OC)C5)n4)ccc3Cl)c2c1 [Example 111, methyl 3-(2-(4-chloro-3-(5-((2-methoxyethyl)amino)pyrazolo[1,5-a]pyridine-3-carboxamido)phenyl)-2H-1,2,3-triazol-4-yl)azetidine-1-carboxylate] |
| 4.8 nM | Cc1ccc(-c2nnn(CC3CC4(CCC4)CO3)n2)cc1NC(=O)c1cnn2ccccc12 (centres unmarked) [Example 9, N-(5-(2-((6-oxaspiro[3.4]octan-7-yl)methyl)-2H-tetrazol-5-yl)-2-methylphenyl)pyrazolo[1,5-a]pyridine-3-carboxamide] |
| 0.5 nM | Cc1cc(F)c(-c2nnn(C3CC3)n2)cc1NC(=O)c1cnn2ccc(-c3cn(C[C@H](C)O)nc3C)cc12 [Example 256, (S)-N-(5-(2-cyclopropyl-2H-tetrazol-5-yl)-4-fluoro-2-methylphenyl)-5-(1-(2-hydroxypropyl)-3-methyl-1H-pyrazol-4-yl)pyrazolo[1,5-a]pyridine-3-carboxamide] |
| 0.4 nM | CCn1nnc(-c2ccc(Cl)c(NC(=O)c3cnn4ccc(-c5c(C)nn(C[C@H](C)O)c5C)cc34)c2)n1 [Example 253, (S)-N-(2-chloro-5-(2-ethyl-2H-tetrazol-5-yl)phenyl)-5-(1-(2-hydroxypropyl)-3,5-dimethyl-1H-pyrazol-4-yl)pyrazolo[1,5-a]pyridine-3-carboxamide] |
| 0.3 nM | Cc1ccc(-c2nnn(C3CC3)n2)cc1NC(=O)c1cnn2ccc(-c3cn([C@H](C)[C@H](C)O)nc3C)cc12 (single isomer, unassigned) [Example 269, N-(5-(2-cyclopropyl-2H-tetrazol-5-yl)-2-methylphenyl)-5-(1-((2R,3S)-3-hydroxybutan-2-yl)-3-methyl-1H-pyrazol-4-yl)pyrazolo[1,5-a]pyridine-3-carboxamide or N-(5-(2-cyclopropyl-2H-tetrazol-5-yl)-2-methylphenyl)-5-(1-((2S,3R)-3-hydroxybutan-2-yl)-3-methyl-1H-pyrazol-4-yl)pyrazolo[1,5-a]pyridine-3-carboxamide] |
